Data published in US20120197004A1, “NOVEL ANTI-MICROBIAL PEPTIDOMIMETIC COMPOUNDS AND METHODS TO CALCULATE ANTI-MICROBIAL ACTIVITY” (priority 2006, published 2012).
Converted amounts (≈) assume the structure as drawn. Like-named read-outs stand apart in the source and are kept apart here. Where a SMILES comes first, the peptide text is derived from it. [ ]: non-standard residue; d: D form. ξ: configuration not given here. Oic = O=C(O)[C@@H]1C[C@@H]2CCCC[C@@H]2N1; Tic = O=C(O)[C@@H]1Cc2ccccc2CN1; ξTic = O=C(O)C1Cc2ccccc2CN1; ξOic = O=C(O)C1CC2CCCCC2N1; Orn = NCCC[C@H](N)C(=O)O; βAla = NCCC(=O)O

Columns and labels:
[1] = Maximum tolerated dose in mouse model; format: in vivo; details: IP, dosed daily day 1-6
Method: Maximum Tolerated Dose: Six compounds were evaluated in an in vivo mouse model to determine the maximum tolerated dose for each compound by BIOCON, Inc. using the following protocol. For each compound 3 dose concentrations (1/5/25 mg/kg or 5/25/125 mg/kg) were administered IP, 1-2 times per day as split doses. Day 0 weigh the animals, day 1-6 dose daily and observe animals, day 7 weigh, euthanasia followed by necrotize to examine abdominal cavity.

[2] = system: Salmonella typhimurium (ATCC 13311); details: for MIC Salmonella typhimurium: ATCC 13311
[3] = system: Staphylococcus aureus Methicillin/Gentamicin/Tetracycline Resistant (ATCC 33592)
[4] = system: Mycobacterium ranae (ATCC 110); details: for MIC Mycobacterium ranae / Minimum Inhibitory Concentration Mycobacterium ranae: ATCC 110
[5] = system: Bacillus subtillis (ATCC 43223); details: for MIC Bacillus Subtillis: ATCC 43223
red blood cells [6] = experiment: Hemolytic studies; details: 100 μM
[7] = Metabolic stability, dog liver microsomes
[8] = Metabolic stability, rat liver microsomes
[9] = Metabolic stability, human liver microsomes; details: for % remaining at time T, Human Liver: 0.5 mg/mL microsomes
[10] = Metabolic stability, mouse liver microsomes
[11] = Metabolic stability, monkey liver microsomes
red blood cells [12] = system: red blood cells
in vitro [13] = details: human, microsomes, pH 7.4
in vitro [14] = details: monkey, microsomes, pH 7.4
in vitro [15] = details: dog, microsomes, pH 7.4
in vitro [16] = details: rat, microsomes, pH 7.4
in vitro [17] = details: mouse, microsomes, pH 7.4
mouse cutaneous injury = experiment: Mouse skin wound healing model; format: in vivo, CD-1 derived male mice; details: topical once daily for 10 days; test substances 100 μg/mouse, CGS-21680 10 μg/mouse
Method: In-vivo assays: Selected compounds were evaluated in an in-vivo mouse skin wound healing model by MDS Pharma Services using the following protocol. Groups of CD-1 derived male mice (n=5) weighting 24±2 g were used. Under hexobarbitol (90 mg/kg, IP) anesthesia, the shoulder and back region of each animal was shaved. A sharp punch (ID 12 mm) was applied to remove the skin including panniculus carnosus and adherent tissues. […] The percent closure of the wound (%) was calculated, and wound half-closure time (CT50) was analyzed by linear regression using Graph-Prism (Graph Software USA). One-way ANOVA followed by Dunnett's test was applied for comparison between the treated and its corresponding vehicle groups at each measurement time point. Differences are considered statistically significant at P<0.05.^41

[18] = system: Salmonella typhimurium strain LT2; experiment: In vivo challenge, gram-negative infection; details: Balb/c mice, intraperitoneal challenge 2.5×10^6; 5 mg/kg initial, then 2.5 mg/kg morning and afternoon
[19] = liver microsomes, 1 μM, T = 60 min

## CC(=O)NCCC(=O)N[C@@H](Cc1ccccc1)C(=O)N1Cc2ccccc2CC1C(=O)N1C(C(=O)NCCC(=O)N[C@@H](CCCCN)C(=O)N2Cc3ccccc3CC2C(=O)N2C(C(=O)NCCC(=O)N[C@@H](Cc3ccccc3)C(=O)N3Cc4ccccc4CC3C(=O)N3C(C(=O)NCCC(=O)N[C@@H](CCCCN)C(=O)N4Cc5ccccc5CC4C(=O)N[C@@H](CCCCN)C(=O)N[C@@H](CCCCN)C(=O)N[C@@H](CCCCN)C(=O)N[C@@H](CCCCN)C(N)=O)CC4CCCCC43)CC3CCCCC32)CC2CCCCC21 (stereo partly drawn) [FKAB-1Gd1, Ac-βAla-F-Tic-Oic-βAla-K-Tic-Oic-βAla-F-Tic-Oic-βAla-K-Tic-KKKK-CONH2] (Ac-[βAla]F[ξTic][ξOic][βAla]K[ξTic][ξOic][βAla]F[ξTic][ξOic][βAla]K[ξTic]KKKK-NH2)
[1]; 125 mg/kg
  Maximum Tolerated Dose/Toxicity 125 mg/kg: 5 out 5 animals died
[2]
  MIC Salmonella typhimurium: 10 µM (≈ 25 µg/mL)
[3]; ATCC 33592
  MIC Staphylococcus aureus ME/GM/TC resistant: 10.00 µM (≈ 25 µg/mL)
[4]
  MIC Mycobacterium ranae: 1.00 µM (≈ 2.5 µg/mL)
  Minimum Inhibitory Concentration Mycobacterium ranae: 1 µM
[5]
  MIC Bacillus Subtillis: 1.00 µM (≈ 2.5 µg/mL)
F. tularensis SCHU-S4
  Minimum Inhibitory Concentration F. tularensis SCHU-S4: 500 µg/mL
B. melitensis 16M
  Minimum Inhibitory Concentration B. melitensis 16M: >500 µg/mL
Red blood cells [6]
  % hemolysis 100/25 μM (first value): 24.4%/
[7]; T = 15 min, 1 μM, 0.5 mg/mL microsomes
  % remaining, Dog Liver T = 15: 84%
[7]; dog, microsomes, pH 7.4
  remaining at 0.5 h, 1 μM: 78%
  remaining at 1 h, 1 μM: 71%
[7]; [19]
  metabolic stability T = 60 min dog: Moderate
[8]; [19]
  metabolic stability T = 60 min rat: high
[8]; rat, microsomes, pH 7.4
  remaining at 0.25 h, 1 μM: 82%
  remaining at 0.5 h, 1 μM: 79%
  remaining at 1 h, 1 μM: 92%
[9]; human, microsomes, pH 7.4
  remaining at 0.25 h, 1 μM: 94%
[9]; [19]
  metabolic stability T = 60 min human: high
[9]; second human column (T = 30 min, head not given), 1 μM
  % remaining at time T, Human Liver: 99%
[9]; third human column (T = 60 min, head not given), 1 μM
  % remaining at time T, Human Liver: 97%
[10]; [19]
  metabolic stability T = 60 min mouse: moderate
[10]; mouse, microsomes, pH 7.4
  remaining at 0.25 h, 1 μM: 90%
  remaining at 0.5 h, 1 μM: 64%
  remaining at 1 h, 1 μM: 53%
[11]; [19]
  metabolic stability T = 60 min monkey: high
[11]; monkey, microsomes, pH 7.4
  remaining at 0.25 h, 1 μM: 90%
  remaining at 0.5 h, 1 μM: 87%
  remaining at 1 h, 1 μM: 89%

## CC(=O)NCC(=O)N1Cc2ccccc2CC1C(=O)N1C(C(=O)N[C@@H](CCCCN)C(=O)N2Cc3ccccc3CC2C(=O)N2C(C(=O)NCC(=O)N3Cc4ccccc4CC3C(=O)N3C(C(=O)N[C@@H](CCCCN)C(=O)N4Cc5ccccc5CC4C(=O)N[C@@H](CCCCN)C(=O)N[C@@H](CCCCN)C(=O)N[C@@H](CCCCN)C(=O)N[C@@H](CCCCN)C(N)=O)CC4CCCCC43)CC3CCCCC32)CC2CCCCC21 (stereo partly drawn) [FKAB-1Ge, Ac-G-Tic-Oic-K-Tic-Oic-G-Tic-Oic-K-Tic-KKKK-CONH2] (Ac-G[ξTic][ξOic]K[ξTic][ξOic]G[ξTic][ξOic]K[ξTic]KKKK-NH2)
[1]; 1 mg/kg
  Maximum Tolerated Dose/Toxicity 1 mg/kg: no observed toxicity
[2]
  MIC Salmonella typhimurium: 10 µM (≈ 20.3 µg/mL)
[3]; Minimal Inhibitory Concentration, tested at 100-0.1 in 1% DMSO
  MIC Staphylococcus aureus ME/GM/TC resistant: 10.00 µM (≈ 20.3 µg/mL)
[3]; in vitro MIC, tested at 100, 30, 10, 3, 1, 0.3 and 0.1 μM in 1% DMSO
  Minimum Inhibitory Concentration Staphylococcus aureus ME/GM/TC resistant: 10 µM
[4]
  MIC Mycobacterium ranae: 3.00 µM (≈ 6.1 µg/mL)
[5]
  MIC Bacillus Subtillis: 1.00 µM (≈ 2.03 µg/mL)
Red blood cells [12]
  % hemolysis 100/25 μM (first value): 26.7%/
Red blood cells [12]; 25
  % hemolysis 100/25 μM (second value): 9.2%
In vitro [13]
  remaining at 0.25 h, 1 μM: 114%
In vitro [14]
  remaining at 0.25 h, 1 μM: 56%
  remaining at 0.5 h, 1 μM: 73%
In vitro [15]
  remaining at 0.5 h, 1 μM: 43%
  remaining at 1 h, 1 μM: 54%
In vitro [16]
  remaining at 0.25 h, 1 μM: 69%
  remaining at 0.5 h, 1 μM: 73%
  remaining at 1 h, 1 μM: 95%
In vitro [17]
  remaining at 0.25 h, 1 μM: 85%
  remaining at 0.5 h, 1 μM: 20%
  remaining at 1 h, 1 μM: 11%

## CC(=O)NCC(=O)N[C@@H](Cc1ccccc1)C(=O)N1Cc2ccccc2C[C@H]1C(=O)N1[C@H](C(=O)NCC(=O)N[C@@H](CCCN)C(=O)N2Cc3ccccc3C[C@H]2C(=O)N2[C@H](C(=O)NCC(=O)N[C@@H](Cc3ccccc3)C(=O)N3Cc4ccccc4C[C@H]3C(=O)N3[C@H](C(=O)NCC(=O)N[C@@H](CCCN)C(=O)N4Cc5ccccc5C[C@H]4C(=O)N[C@@H](CCCN)C(=O)N[C@@H](CCCN)C(=O)N[C@@H](CCCN)C(=O)N[C@@H](CCCN)C(N)=O)C[C@@H]4CCCC[C@@H]43)C[C@@H]3CCCC[C@@H]32)C[C@@H]2CCCC[C@@H]21 [FKAB-1Gp, Ac-GF-Tic-Oic-G-Orn-Tic-Oic-GF-Tic-Oic-G-Orn-Tic-Orn-Orn-Orn-Orn-CONH2] (Ac-GF[Tic][Oic]G[Orn][Tic][Oic]GF[Tic][Oic]G[Orn][Tic][Orn][Orn][Orn][Orn]-NH2)
Mouse cutaneous injury
  CT50 (wound half-closure time): 5.7 days
  wound closure Day 3: 38.8%
  wound closure Day 5: 51.2%
  wound closure Day 7: 67.2%
  wound closure Day 9: 72.8%
  wound closure Day 11: 81.1%
[2]; -log(MIC)
  p(MIC) Salmonella typhimurium: 5.52
[2]
  MIC Salmonella typhimurium: 3 µM (≈ 7.07 µg/mL)
[3]; -log(MIC)
  p(MIC) Staphylococcus aureus ME/GM/TC resistant: 5.52
[3]; p(MIC) used in Staphylococcus aureus QSAR model
  Actual Bioactivity: 5.520
[4]
  Actual Bioactivity: 5.000
  MIC Mycobacterium ranae: 10.00 µM (≈ 23.6 µg/mL)
  Minimum Inhibitory Concentration Mycobacterium ranae: 10 µM
[5]; -log(MIC)
  p(MIC) Bacillus Subtillis: 6.52
[5]
  MIC Bacillus Subtillis: 0.30 µM (≈ 0.707 µg/mL)
[18]
  morbidity (survival compared to control group): Accelerated morbidity
